Results: ChEMBL document CHEMBL3813651, “Structure-activity relationships of dibenzoylhydrazines for the inhibition of P-glycoprotein-mediated quinidine transport” (Bioorg Med Chem, 2016)

Experiments:
[1] = target: ATP-dependent translocase ABCB1 (Homo sapiens, UniProt P08183); experiment: Inhibition of human P-glycoprotein transfected in pig LLC-GA5-COL150 cells assessed as quinidine transport from apical to basolateral side preincubated for 30 mins followed by quinidine addition to apical side measured after 60 mins; type: cell-based; parameters: log(activity): scale not given here; settings: for log(activity): human, llc-ga5-col150, 1 h
ATP-dependent translocase ABCB1, sequence (P08183 whole entry): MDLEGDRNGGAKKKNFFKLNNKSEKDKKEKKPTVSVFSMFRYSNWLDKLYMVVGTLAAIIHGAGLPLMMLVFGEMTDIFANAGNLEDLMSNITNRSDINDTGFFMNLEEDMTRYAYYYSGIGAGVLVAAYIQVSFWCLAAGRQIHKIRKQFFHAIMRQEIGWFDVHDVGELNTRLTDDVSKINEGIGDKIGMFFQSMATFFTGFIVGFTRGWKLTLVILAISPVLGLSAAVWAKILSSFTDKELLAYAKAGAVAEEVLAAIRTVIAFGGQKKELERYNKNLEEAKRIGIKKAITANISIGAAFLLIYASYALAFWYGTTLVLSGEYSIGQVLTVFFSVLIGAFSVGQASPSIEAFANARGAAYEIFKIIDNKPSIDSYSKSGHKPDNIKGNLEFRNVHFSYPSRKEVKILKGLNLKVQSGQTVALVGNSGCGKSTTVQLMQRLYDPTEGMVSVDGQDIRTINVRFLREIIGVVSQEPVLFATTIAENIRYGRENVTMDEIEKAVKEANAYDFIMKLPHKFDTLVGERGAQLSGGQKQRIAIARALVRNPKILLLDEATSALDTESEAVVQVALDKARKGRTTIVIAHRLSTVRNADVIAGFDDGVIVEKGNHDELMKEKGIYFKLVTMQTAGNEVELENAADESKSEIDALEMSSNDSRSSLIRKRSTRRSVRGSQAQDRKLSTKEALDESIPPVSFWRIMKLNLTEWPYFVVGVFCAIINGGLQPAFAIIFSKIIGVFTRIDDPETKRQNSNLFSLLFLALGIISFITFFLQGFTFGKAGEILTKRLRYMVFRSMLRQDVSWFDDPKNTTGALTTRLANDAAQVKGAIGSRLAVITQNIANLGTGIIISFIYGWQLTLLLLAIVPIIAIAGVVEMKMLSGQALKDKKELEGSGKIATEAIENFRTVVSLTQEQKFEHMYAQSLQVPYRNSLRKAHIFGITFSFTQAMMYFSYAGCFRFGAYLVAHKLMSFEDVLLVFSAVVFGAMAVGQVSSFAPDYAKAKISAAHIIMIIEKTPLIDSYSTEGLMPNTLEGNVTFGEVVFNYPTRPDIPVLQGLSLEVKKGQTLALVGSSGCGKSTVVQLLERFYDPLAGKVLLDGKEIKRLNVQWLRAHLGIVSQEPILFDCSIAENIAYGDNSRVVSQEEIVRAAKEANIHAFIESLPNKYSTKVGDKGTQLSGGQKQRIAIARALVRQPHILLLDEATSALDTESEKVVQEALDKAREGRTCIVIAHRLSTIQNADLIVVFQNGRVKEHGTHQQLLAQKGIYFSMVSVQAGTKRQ

P-glycoprotein (ABCB1) [2] = target: T1, P-glycoprotein (ABCB1) (Homo sapiens, UniProt P08183); experiment: Inhibition of human P-glycoprotein transfected in pig LLC-GA5-COL150 cells assessed as quinidine transport from apical to basolateral side at 30 uM preincubated for 30 mins followed by quinidine addition to apical side measured after 60 mins; type: cell-based; settings: LLC-PK1, probe quinidine
T1 sequence (P08183 whole entry): as above

[3] = Lipophilicity , logP of the compound; type: physicochemical; settings: octanol/water
P-glycoprotein (ABCB1) [4] = target: T1, P-glycoprotein (ABCB1); experiment: Inhibition of human P-glycoprotein transfected in pig LLC-GA5-COL150 cells assessed as quinidine transport from apical to basolateral side at 2 uM preincubated for 30 mins followed by quinidine addition to apical side measured after 60 mins; settings: LLC-PK1, probe quinidine

Structure (SMILES)	log(activity) [1]	inhibition at 1 h, 30 µM (P-glycoprotein (ABCB1) [2])	IC50 [1]	logP [3]	inhibition at 1 h, 2 µM (P-glycoprotein (ABCB1) [4])
CC(C)(C)N(NC(=O)c1ccccc1)C(=O)c1ccccc1Cl	-1.25	5.4%			
Cc1cc(C)cc(C(=O)N(NC(=O)c2ccccc2)C(C)(C)C)c1	-0.69	17%	100 µM		
Cc1cc(C)cc(C(=O)N(NC(=O)c2cccc(C)c2C)C(C)(C)C)c1	-0.16	41.1%		4.43	
Cc1cc(C)cc(C(=O)N(NC(=O)c2ccc(Cl)cc2)C(C)(C)C)c1	-0.78	14.2%		4.31	
CC(C)(C)N(NC(=O)c1ccccc1F)C(=O)c1ccccc1Cl	-1.21	5.9%			
CC(C)(C)N(NC(=O)c1cccc(Cl)c1)C(=O)c1ccccc1Cl	-0.43	27.3%	45.7 µM		
CCCc1ccc(C(=O)NN(C(=O)c2ccccc2Cl)C(C)(C)C)cc1	-0.02	48.7%			
COc1ccc(C(=O)NN(C(=O)c2ccccc2Cl)C(C)(C)C)cc1	-1.13	6.9%			
CC(=O)c1ccc(C(=O)NN(C(=O)c2ccccc2Cl)C(C)(C)C)cc1	-1.25	5.3%			
CC(C)(C)N(NC(=O)c1c(F)cccc1F)C(=O)c1ccccc1Cl	-1.36	4.2%		2.35	
CC(C)(C)N(NC(=O)c1ccc(C#N)cc1)C(=O)c1ccccc1Cl	-1.29	4.9%			
Cc1ccc(C(=O)NN(C(=O)c2ccccc2Cl)C(C)(C)C)cc1	-1.1	7.3%			
CCc1ccc(C(=O)NN(C(=O)c2ccccc2Cl)C(C)(C)C)cc1	-0.52	23%			
CC(C)(C)N(NC(=O)c1cccc(Cl)c1Cl)C(=O)c1ccccc1Cl	-0.09	45%		3.75	
Cc1cccc(C(=O)NN(C(=O)c2ccccc2Cl)C(C)(C)C)c1C	-0.99	9.3%		3.4	
COc1cccc(C(=O)NN(C(=O)c2ccccc2Cl)C(C)(C)C)c1C	-0.86	12.2%		3.46	
Cc1ccc(C)c(C(=O)NN(C(=O)c2ccccc2Cl)C(C)(C)C)c1	-0.44	26.8%	73.6 µM	3.4	
Cc1ccc(C(=O)NN(C(=O)c2ccccc2Cl)C(C)(C)C)cc1C	-0.58	20.8%		3.65	
COc1cccc(C(=O)NN(C(=O)c2cc(C)cc(C)c2)C(C)(C)C)c1	-0.28	34.2%	58.1 µM	3.75	
Cc1ccc(C(=O)NN(C(=O)c2cc(C)cc(C)c2)C(C)(C)C)cc1	-0.35	30.9%		3.95	

Structure (SMILES)	log(activity) [1]	inhibition at 1 h, 30 µM (P-glycoprotein (ABCB1) [2])	IC50 [1]	logP [3]	inhibition at 1 h, 2 µM (P-glycoprotein (ABCB1) [4])
CC(C)(C)N(NC(=O)c1ccccc1Cl)C(=O)c1ccccc1Cl	-1.25	5.3%			
CC(C)(C)N(NC(=O)c1ccccc1Br)C(=O)c1ccccc1Cl	-0.95	10.1%		2.91	
CC(C)(C)N(NC(=O)c1ccccc1I)C(=O)c1ccccc1Cl	-0.55	21.8%		3.11	
CC(C)(C)N(NC(=O)c1cccc(F)c1)C(=O)c1ccccc1Cl	-1.08	7.6%			
CC(C)(C)N(NC(=O)c1cccc(Br)c1)C(=O)c1ccccc1Cl	-0.31	33%		3.62	
CC(C)(C)N(NC(=O)c1cccc(C#N)c1)C(=O)c1ccccc1Cl	-0.98	9.5%		2.48	
Cc1cccc(C(=O)NN(C(=O)c2ccccc2Cl)C(C)(C)C)c1	-0.89	11.5%			
COc1cccc(C(=O)NN(C(=O)c2ccccc2Cl)C(C)(C)C)c1	-0.92	10.8%		2.81	
CC(C)(C)N(NC(=O)c1ccc(F)cc1)C(=O)c1ccccc1Cl	-1.3	4.8%			
CC(C)(C)N(NC(=O)c1ccc(C(F)(F)F)cc1)C(=O)c1ccccc1Cl	-0.71	16.2%			
CC(C)(C)N(NC(=O)c1c(F)cccc1Cl)C(=O)c1ccccc1Cl	-1.13	6.9%		2.67	
Cc1cc(C)cc(C(=O)N(NC(=O)c2ccc(F)c(F)c2F)C(C)(C)C)c1		2.5%		3.64	
COc1ccccc1C(=O)NN(C(=O)c1ccccc1Cl)C(C)(C)C	-1.14	6.7%		2.37	
CC(C)(C)N(NC(=O)c1cc(Cl)ccc1Cl)C(=O)c1ccccc1Cl	-0.1	44.2%	46.7 µM	3.75	
CCOc1cccc(C(=O)NN(C(=O)c2cc(C)cc(C)c2)C(C)(C)C)c1	0.02	50.9%	39.9 µM	4.28	
CC(C)(C)N(NC(=O)c1cccc(I)c1)C(=O)c1ccccc1Cl	0.25	63.9%		3.87	
CC(C)(C)N(NC(=O)c1cc(Cl)cc(Cl)c1)C(=O)c1ccccc1Cl		97.2%		4.29	
Cc1cc(C)cc(C(=O)N(NC(=O)c2ccc(C(F)(F)F)cc2)C(C)(C)C)c1		0.9%		4.66	
CC(C)(C)N(NC(=O)c1c(Cl)cccc1Cl)C(=O)c1ccccc1Cl	-1.21	5.8%		3.03	
CSc1ccccc1C(=O)NN(C(=O)c1ccccc1Cl)C(C)(C)C	-1.13	7%		2.84	

Structure (SMILES)	log(activity) [1]	inhibition at 1 h, 30 µM (P-glycoprotein (ABCB1) [2])	IC50 [1]	logP [3]	inhibition at 1 h, 2 µM (P-glycoprotein (ABCB1) [4])
CCCc1ccc(C(=O)NN(C(=O)c2cc(C)cc(C)c2)C(C)(C)C)cc1	0.15	58.4%	15.2 µM	4.86	
CC(C)(C)N(NC(=O)c1ccccc1-c1ccccc1)C(=O)c1ccccc1Cl	0.61	80.3%	12.5 µM	3.77	
Cc1cc(C)cc(C(=O)N(NC(=O)c2cccc(O)c2C)C(C)(C)C)c1		0.5%		3.84	
Cc1cc(C)cc(C(=O)NN(C(=O)c2ccccc2Cl)C(C)(C)C)c1	-0.54	22.4%		3.67	
CC(C)(C)N(NC(=O)c1ccccc1C(F)(F)F)C(=O)c1ccccc1Cl	-0.73	15.6%		3.02	
Cc1cc(C)cc(C(=O)N(NC(=O)c2cccc(O)c2)C(C)(C)C)c1		1%		3.34	
Cc1cccc(C(=O)NN(C(=O)c2cc(C)cc(C)c2)C(C)(C)C)c1	-0.23	36.8%	48.2 µM	3.98	
Cc1cc(C)cc(C(=O)N(NC(=O)c2ccc(C)c(C)c2C)C(C)(C)C)c1	0.07	54.2%		4.88	
CC(C)(C)N(NC(=O)c1ccc(Cl)c(Cl)c1)C(=O)c1ccccc1Cl		98.9%		4.25	
Cc1cc(C)cc(C(=O)N(NC(=O)c2cc(F)c(F)cc2F)C(C)(C)C)c1		1.9%		3.71	
CC(C)(C)N(NC(=O)c1cccc(C(F)(F)F)c1)C(=O)c1ccccc1Cl	-0.3	33.4%	43.8 µM	3.7	
CC(C)(C)N(NC(=O)c1cccc([N+](=O)[O-])c1)C(=O)c1ccccc1Cl	-0.7	16.6%	64.4 µM	2.73	
Cc1cc(C)cc(C(=O)N(NC(=O)c2ccccc2C)C(C)(C)C)c1	-0.54	22.3%	79.9 µM	3.98	
CC(C)(C)N(NC(=O)c1ccc(Cl)cc1Cl)C(=O)c1ccccc1Cl	-0.16	40.7%		3.71	
Cc1cc(C)cc(C(=O)N(NC(=O)c2ccc(C(C)C)cc2)C(C)(C)C)c1	-0.02	49%		4.91	
CC(C)(C)N(NC(=O)c1ccccc1[N+](=O)[O-])C(=O)c1ccccc1Cl		1.7%		1.99	
COc1cc2c(cc1OC)CN(CCc1ccc(NC(=O)c3cccc4c(=O)c5cccc(OC)c5[nH]c34)cc1)CC2					100%
COc1cccc(C(=O)NN(C(=O)c2cc(C)cc(C)c2)C(C)(C)C)c1C [METHOXYFENOZIDE]	-0.33	32%	44.3 µM		
CCc1ccc(C(=O)NN(C(=O)c2cc(C)cc(C)c2)C(C)(C)C)cc1 [TEBUFENOZIDE]	0.06	53.3%	21.5 µM		
